This is an account of results in patent US20230088704A1, “A PHARMACEUTICAL COMBINATION FOR THE TREATMENT OF A CANCER” (ABILITY PHARMACEUTICALS S.L., priority 2020, published 2023).

One data set concerns LA1-5S cells. Description: Cell viability (crystal violet), ABTL0812 with irinotecan. Conditions: ABTL0812 30 μM + irinotecan 4, 8, 16 μM; 72 hours. The format is cell-based. As for the experimental part:
Methods: LA1-5S cells were incubated with increasing concentrations of irinotecan (4 μM, 8 μM and 16 μM) and a fixed concentration of ABTL0812 (30 μM). Cells were treated for 72 hours in IMDM with 0.5% FBS. Cell viability was evaluated by crystal violet assay. Data is presented as mean±SEM of three independent experiments. Statistical analyses were performed according to the T-Test principle with GraphPad Prism® 5.0 software (*p<0.05; **p<0.01; ***p<0.001).

Another data set concerns T98G cells. Description: Human glioblastoma subcutaneous xenograft, ABTL0812 with radiotherapy. The class given is in vivo, nude mice. Here is the method: (§1) Methods: Mice were injected subcutaneously with 1×10^6 U87MG or T98G cells in each flank to induce tumor formation. […] ABTL0812 was administered orally at 240 mg/kg 5 days/week and radiotherapy as single dose of 4 Gy administered at day 3.

For the next data set, the system named is U87MG cells. Described as above. The class given is in vivo, nude mice. As for the experimental part:
as §1

Data set [1] concerns PMA-activated THP-1 macrophages. Put plainly: Conditioned media of ABTL0812-treated MiaPaca2 cells on THP-1 macrophages. The class given is cell-based, human. Conditions: conditioned media from MiaPaca2 cells treated with ABTL0812 40 μM 72 hours. Here is the method: Methods: MiaPaca2 cells were incubated with 40 μM of ABTL0812 during 72 hours and conditioned media (RPMI) of these ABTL0812-treated cells were collected. In parallel, human THP-1 cells were differentiated to macrophages by incubation with PMA (Phorbol myristate acetate) for 24 hours, inducing their attachment to the plates. Then, conditioned media from ABTL0812-treated MiaPaca2 cells was transferred to PMA-activated THP-1 macrophages and incubated during 24 hours for RT-qPCR analysis of M1 phenotype markers IL-1β and TNF-α, or during 48 hours for cell viability studies using the MTT assay. For M1 marker analysis, cells were collected, RNA extracted, retrotranscribed to cDNA and mRNA levels of IL-1β and TNF-α assessed by RT-qPCR.

Data set [2] deals with Human pancreatic cancer cells. Description: Immunogenic cell death (ICD) hallmarks. Conditions: ABTL0812 0 to 150 μM; 24 hours. The format is cell-based. Here is the method: Methods: Human pancreatic cancer cells were treated with increasing concentrations of ABTL0812 (ranging from 0 to 150 μM) for 24 hours, and ICD hallmarks extracellular Hmgb1 and ATP, surface Calreticulin, and caspases 3 and 8 activation, were evaluated by ELISA (Hmgb1 and ATP), flow cytometry (Calreticulin) and immunoblotting (Caspases 3 and 8). For extracellular Hmgb1 and ATP, culture media from ABTL0812 treated cells were collected and incubated with specific antibodies for further detection using colorimetric assay. For surface Calreticulin, cancer cells were collected and incubated with specific antibody for further detection using flow cytometry. For Caspase 3 and 8 activation, cancer cells were collected, protein lysate obtained, incubated with specific antibodies for further detection using immunoblotting and finally quantified using densitometry.

Data set [3] concerns human immortalized THP-1 and human primary macrophage cells. Description: M1/M2 polarization of immortalized and primary macrophages, RT-qPCR. The format is cell-based. Here is the method: Methods: THP-1 monocytes growing in suspension were differentiated to macrophages by incubation with PMA for 24 hours, inducing their attachment to the plates. Monocytes were differentiated to macrophages incubating with M-CSF1 at 20 ng/mL for 7 days. In parallel, whole blood was collected from healthy donors, and circulating monocytes were purified using immunomagnetic separation. Monocytes were selected using anti-CD14 antibodies bound to magnetic beads, which were retained in the magnetic column and further eluted for culturing in vitro. After obtaining activated macrophages (immortalized and primary), these were polarized to M1 by incubation with LPS+IFNγ for 6 hours in the presence of ABTL0812 at 100 μM. In parallel, differentiated macrophages were polarized to M2 by incubation with IL-4 and IL-13 for 24 hours in the presence of ABTL0812 (100 μM). Afterwards, polarized macrophages were lysed, total RNA extracted, retrotranscribed to cDNA and mRNA levels of IL1β, TNFα (M1 markers) and IL-10 (M2 marker) were evaluated by RT-qPCR using specific probes.

In data set [4] the test system is Ishikawa endometrial cancer cells. Put plainly: Co-culture of ABTL0812-treated cancer cells with activated T cells, MTT. The class given is cell-based, human. To be noted: ABTL0812 50 μM 6 hours, then co-culture with activated T lymphocytes 24 hours. Here is the method: Methods: human PBMCs were purified from peripheral blood of healthy donors using Ficoll and cultured in vitro. Human T cells were activated by incubation with IL-2 and CD3 and CD28 antibodies for 10 days. In parallel, Ishikawa endometrial cancer cells were treated with ABTL0812 at 50 μM for 6 hours and then co-cultured with activated T lymphocytes for 24 hours. Then, cell viability was assessed by the MTT assay. Untreated Ishikawa cells were used as controls.

The next data set relates to H157 cells. Put plainly: PDL1 protein in xenograft tumors by western blot. The class given is in vivo, nude mice. To be noted: ABTL0812 oral 120 mg/kg/day for three weeks. As for the experimental part:
(§2) Methods: Mice were injected with 4×10^6 H157 cells or 5×10^6 MiaPAca2 cells in one flank to induce tumor formation. […] After treatment, animals were sacrificed, tumor extracted and protein levels of PDL1 in cancer cells analyzed by western blot.

A further data set deals with MiaPaca2 cells. Put plainly: PDL1 protein in xenograft tumors by western blot. The class given is in vivo, nude mice. Conditions: ABTL0812 oral 120 mg/kg/day for three weeks. Here is the method:
as §2

The next data set relates to LLC1 cells. Put plainly: Syngeneic lung cancer model, subcutaneous LLC1, tumor volume. The format is in vivo, C57BL6 mice. Conditions: ABTL0812 oral 120 mg/kg/day; anti-PD1 i.p. 100 μg/dose every three days; carboplatin and paclitaxel i.p. once a week. As for the experimental part: C57BL6 mice were injected with 0.25×10^6 LLC1 cells in one flank to induce tumor formation. […] Tumor volume and body weight were monitored 3 times a week.

Where [5] appears, read: ABTL0812 oral 240 mg/kg 5 days/week.
The mark [6] stands for this setting: ABTL0812 oral 240 mg/kg 5 days/week + radiotherapy single dose 4 Gy at day 3.
[7] abbreviates: macrophages polarized to M1 (LPS+IFNγ 6 hours), ABTL0812 100 μM.

For `CCCCC/C=C\C/C=C\CCCCCCC(O)C(=O)O` (centres unmarked) [ABTL0812, COOH—CHOH—(CH2)6—(CH═CH—CH2)2—(CH2)3—CH3], the “irinotecan cytotoxicity on addition of ABTL0812” value in the data set on LA1-5S cells is given as “significantly increased irinotecan cytotoxicity”. Further, the “growth of subcutaneous tumors, single agent” value in the data set with T98G cells (setting [5]) is recorded as “significantly decreased the growth of glioblastoma subcutaneous tumors”. In the data set on T98G cells (setting [6]), the “growth of subcutaneous tumors, combination with radiotherapy” value is given as “significantly more efficacious than ABTL0812 or radiotherapy as single treatments”. Also, the “growth of subcutaneous tumors, single agent” value with U87MG cells (setting [5]) is given as “significantly decreased the growth of glioblastoma subcutaneous tumors”. In addition, in the data set on U87MG cells (setting [6]), the “growth of subcutaneous tumors, combination with radiotherapy” value is on record as “significantly more efficacious than ABTL0812 or radiotherapy as single treatments”. In addition, in data set [1] (24 hours on macrophages), the “gene expression of IL-1β” value is given as “significantly increasing the gene expression” and the “gene expression of TNF-α” value is reported as “significantly increasing the gene expression”. Besides, in data set [1] (48 hours on macrophages), the “THP-1 cell viability (MTT)” value is “significantly increasing THP-1 cell viability”. Further, in [2], the “Caspase 3 and 8 activation” value is “dose dependent increase”; the “extracellular ATP” value is “dose dependent increase”; the “extracellular Hmgb1” value is on record as “dose dependent increase”; the “surface Calreticulin” value is reported as “dose dependent increase”. The “expression of IL-1β” value in data set [3] (differentiated macrophages without polarizing, ABTL0812 alone) was “significantly induces the expression of IL-1β”. In data set [3] (setting [7]), the “IL-1β mRNA levels” value is “significantly potentiates” and the “TNFα mRNA levels” value is “significantly potentiates”. Also, the “IL-10 mRNA levels” value in data set [3] (macrophages polarized to M2 (IL-4 and IL-13, 24 hours), ABTL0812 100 μM) is recorded as “significantly suppresses”. In data set [4], the “cytotoxic effect of activated T cells on cancer cells” value is listed as “potentiates the cytotoxic effect of activated T cells”. Also, the “protein levels of PDL1 in tumor” value in the data set on H157 cells is “Increases protein levels of PDL1 in tumor in vivo”. Moreover, the “protein levels of PDL1 in tumor” value in the data set with MiaPaca2 cells is reported as “Increases protein levels of PDL1 in tumor in vivo”. The tumor volume entry with LLC1 cells was “significantly reduced tumor volume”.
